Laboratory results taken from PubChem BioAssay (NCI).
Where “and” joins values, the source holds several entries; their conditions need not be identical. Identical values can stand only once.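 In this assay, cells in 96-well plates receive the compound at five concentrations for 48 hours. Endpoints are linearly interpolated between the surrounding concentrations. Here, GI50 denotes the concentration required for 50% inhibition of growth. TGI denotes the concentration required for complete inhibition of growth.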

Legend:
Test in all cases: NCI-60 cell line screen, 48 h
786-0 renal = system: 786-0 renal
COLO 205 colon = system: COLO 205 colon
MDA-MB-231 breast = system: MDA-MB-231 breast
NCI-H522 lung = system: NCI-H522 lung
NCI/ADR-RES ovarian = system: NCI/ADR-RES ovarian
OVCAR-4 ovarian = system: OVCAR-4 ovarian
OVCAR-8 ovarian = system: OVCAR-8 ovarian
RXF 393 renal = system: RXF 393 renal
UACC-257 melanoma = system: UACC-257 melanoma
UO-31 renal = system: UO-31 renal

SMILES | GI50 (786-0 renal) [µM] | TGI (786-0 renal) [µM] | GI50 (COLO 205 colon) [µM] | TGI (COLO 205 colon) [µM] | GI50 (MDA-MB-231 breast) [µM] | TGI (MDA-MB-231 breast) [µM] | GI50 (NCI-H522 lung) | TGI (NCI-H522 lung) | GI50 (NCI/ADR-RES ovarian) [µM] | TGI (NCI/ADR-RES ovarian) [µM] | GI50 (OVCAR-4 ovarian) [µM] | TGI (OVCAR-4 ovarian) [µM] | GI50 (OVCAR-8 ovarian) [µM] | TGI (OVCAR-8 ovarian) [µM] | GI50 (RXF 393 renal) [µM] | TGI (RXF 393 renal) [µM] | GI50 (UACC-257 melanoma) [µM] | TGI (UACC-257 melanoma) [µM] | GI50 (UO-31 renal) [µM] | TGI (UO-31 renal) [µM]
Cc1noc(C)c1-c1cnc2c(-c3ccc(C(=O)O)cc3)cn([C@@H](C)c3ccccn3)c2c1 | 2.13 | > 100 | 0.413 | > 100 | 0.518 | > 100 | 0.231 µM | > 49.7 µM | 2.28 | > 100 | 0.772 | > 100 | 2.89 | > 100 | 2.4 | 34.6 | 1.62 | > 100 | 0.102 | > 55
O=C(CN(/C=C/C(=O)C(F)(F)F)c1ccccc1)c1ccc(Cl)cc1 | 15.3 | 29.1 | 22.1 | 49.1 | 16.5 | 33.3 | 14.5 µM | 35.4 µM | 17.6 | 36 | 26.6 | 70.1 | 18.6 | 45.5 | 17.1 | 42.6 | 19.9 | 45.9 | 19.9 | 41.7
COc1ccc(-c2nc(N)c(C#N)c3c2CCOc2c-3ccc3ccccc23)cc1 | 17.2 | 48.3 | 7.61 | > 100 | 10.6 | 33.8 | 38.1 µM | > 100 µM | 17.5 | 57.8 | 1.43 | 9.38 | 23.3 | 58 | 1.6 | 31.1 | 13.7 | 37.8 | 49.9 | > 100
CC[C@@H](O)C[C@H]1CCC[C@@]2(C[C@@H]3OC(=O)/C=C/[C@@](C)(O)[C@@H](O)[C@H](C)[C@@H](O)[C@H](OC4CCC(N(C)C)C(C)O4)[C@@H](O)[C@](C)(O)CCCCC/C=C/[C@@H]4CC(C)(C)O[C@@]4(O)C[C@H](O2)[C@H]3C)O1 (stereo not given in full) |  | 34.1 |  | 14.5 |  | 34.1 |  | 12.3 µM |  | 24 |  | 25.7 |  | 20.3 |  | 34.6 |  | 4.82 |  | 18.1
CN(C)CCCCCNc1c2ccccc2nc2cccc([N+](=O)[O-])c12 |  | 0.00798 | 0.00591 | 0.00173 |  | 0.00202 | 0.00154 µM and 0.000466 µM | 0.0029 µM and 0.00186 µM |  | 0.0055 | 0.00339 | 0.00236 |  |  | 0.00139 | 0.0032 |  | > 0.0231 | 0.0125 | 0.0425
Cn1cc(C2=C(c3ccccc3C(F)(F)F)C(=O)NC2=O)c2ccccc21 | 9.16 | > 25 | 6.42 | > 25 | 17.4 | > 25 | 11.6 µM | > 25 µM | 9.53 | > 25 | 9.64 | > 25 | 10.4 | > 25 | 5.17 | 16.7 | 9.59 | > 22.5 | 7.84 | > 25
O=C(Nc1ccc2c(c1)OCCO2)C(=O)c1c[nH]c2ccccc12 | 4.28 | 44.9 | 2.72 | > 100 | 1.37 | 14.7 | 0.536 µM | 16.3 µM | 0.375 | 5.06 | 3.88 | > 100 | 2.37 | 35.7 | 2.59 | 11.1 | > 23.5 | > 100 | 5.11 | > 71.4
C=C1C(=O)O[C@H]2[C@H]1CC/C(COC(=O)NCCc1cccc(OC)c1)=C\CC[C@@]1(C)O[C@@H]21 | 1.37 | 3.07 | 1.55 | 3.28 | 1.56 | 3.47 | 1.02 µM | 2.69 µM | 2.95 | 10.8 | 1.78 | 4.37 | 2.26 | 8.03 | 0.673 | 2.38 | 1.53 | 3.4 | 1.39 | 2.86
O=C(/C=C\n1cnc(-c2cc(C(F)(F)F)cc(C(F)(F)F)c2)n1)N1CC(F)(F)C1 | 0.387 | 6.12 | 0.351 | 4.14 | 0.305 | 4.52 | 0.423 µM | 4.47 µM | 0.552 | 10.9 | 0.224 | 4.13 | 0.442 | > 11.8 | 0.226 | 1.09 | 1.17 | > 13.1 | 0.422 | > 25
CCOc1ccc(N=Cc2ccnc3ccccc23)cc1 |  | > 100 |  | > 100 |  | > 75.9 |  | > 94.8 µM |  | > 100 |  | > 100 |  | > 83.7 |  | > 100 |  | > 100 |  | > 100
CC/C(Cc1ccccc1)=C(/c1ccc(O)cc1)c1ccc(OCCN2CCCC2)cc1 | 1.72 | 3.22 | 1.76 | 3.39 | 2.1 | 4.05 | 1.89 µM | 3.67 µM | 2.1 | 5.44 | 2.08 | 5.18 | 2.39 | 5.39 | 1.56 | 3.13 | 2.14 | 3.89 | 1.43 | 2.95
COc1ccc(-c2nn3ncccc3c2-c2ccnc(Nc3ccc4c(c3)OCCO4)n2)cc1 | 8.38 | > 25 | 13.1 | > 25 | 6.55 | > 25 | 5.56 µM | 23 µM | 7.52 | > 25 | 9.19 | > 25 | 7.3 | > 25 | 3.27 | > 25 | 9.07 | > 25 | 2.19 | 16.7
S=C(CSc1ccccc1)Nc1cccc2ccccc12 |  | > 100 |  | 32 |  | > 100 |  | > 100 µM |  | > 100 |  | > 100 |  | > 100 |  | > 100 |  | 68.3 |  | > 100
CC(C)=C1CCC(CN2CCOCC2)C1=O (stereo not given) |  | 11.2 |  | 16.9 |  | 31.5 |  | 0.163 µM |  | 40.8 |  | 15.6 |  | 27.8 |  | 5.47 |  | 32.5 |  | 32.6
COc1ccc2nc3cccc([N+](=O)[O-])c3c(NCCNCCN(C)C)c2c1 | 0.0429 | 0.164 | 0.0277 | 0.0949 | 0.658 | 4.17 | 0.0102 µM | 0.0184 µM | 0.884 | 4.67 | 0.0199 | 0.0509 | 0.044 | 0.277 | 0.0342 | 0.122 | 0.24 | 0.604 | 0.119 | 0.377
Cc1nc(Sc2nc3ccc([N+](=O)[O-])cc3s2)sc1C | 1.78 | 6.1 | 1.93 | 6.07 | 1.84 | 11 | 0.627 µM | 2.36 µM | 1.63 | 5.45 | 1.35 | 9.81 | 1.79 | 7.12 | 1.22 | 3.39 | 4.62 | 16.4 | 1.49 | 4.17
Cc1cccc(Nc2cc(Cl)nc(SCC(=O)O)n2)c1C |  | > 100 |  | > 100 |  | > 100 |  | > 100 µM |  | > 100 |  | > 100 |  | > 100 |  | > 100 |  | > 100 |  | 
COc1ccc2[nH]c(C(=O)OCc3ccc4cccc(O)c4n3)cc2c1 | 1.68 | 3.31 | 1.29 | 2.91 | 1.17 | 2.49 | 1.39 µM | 3.25 µM | 1.94 | 5.91 | 1.83 | 3.55 | 1.38 | 4.04 | 1.06 | 2.31 | 2.02 | 5.68 | 0.551 | 1.99
Nc1ccc(-c2ccc3ncc4ccc(=O)n(-c5cccc(C(F)(F)F)c5)c4c3c2)cn1 | < 0.01 | 0.423 | 0.0245 | 0.683 | < 0.0141 | 2.21 | < 0.01 µM | 2.03 µM | 0.02 | 13.1 | < 0.01 | 0.0337 | < 0.01 | > 33.7 | < 0.01 | 0.0443 | < 0.01 | 0.0708 | < 0.01 | 2.39
COc1ccc2c(c1)O/C(=C\c1cccc(OCC(=O)Nc3nc(C)c(C)s3)c1)C2=O | 0.715 | 2.08 | 22.3 | > 100 | 0.95 |  | 1.26 µM | 2.95 µM | 21.3 | > 100 | 12.8 | > 100 | 4.7 | > 100 | 1.06 | 2.75 | > 100 | > 100 | 0.547 | 1.02
COc1cc(-c2nccc3cc4c(cc23)OCO4)cc(OC)c1OC | 7.65 | > 100 | > 100 | > 100 | 16.1 | > 100 | 2.33 µM | 27.4 µM | 2.74 | > 100 | > 100 | > 100 | 7.08 | > 100 | 3.4 | 18.3 | > 100 | > 100 | 6.99 | > 100
NCCOc1ncccc1/C=C1\c2ccccc2-c2ccc([N+](=O)[O-])cc21 | 0.0268 | 0.139 | 0.137 | 0.343 | 0.206 | 0.613 | 0.0684 µM | 0.438 µM | 0.154 | 1.12 | 0.194 | 0.827 | 0.0686 | 0.705 | 0.171 | 0.443 | 0.209 | 1.39 | 0.0439 | 0.186
CN1CCN(CCCOc2cccc3nc(Nc4ccc(F)c(F)c4)ccc23)CC1 | 4.66 | 9.25 | 0.646 | 1.33 | 0.937 | 3.38 | 1.01 µM | 3.69 µM | 5.16 | 10.5 | 6.42 | 15.2 | 5.13 | 10.2 | 2.11 | 6.57 | 0.655 | 1.39 | 4.34 | 9.01
Cn1cncc1-c1c(F)cncc1NC(=O)c1c(N)nn2cc(F)cnc12 | 0.338 | > 100 | 5.68 | > 100 | 4.72 | > 100 | 3.46 µM | 19.8 µM | 1.45 | > 100 | 1.27 | 14.4 | 5.83 | > 100 | 0.278 | 16.8 | 20.9 | > 100 | 0.303 | 60.5
CCOC(=O)C#Cc1c(C(=O)OCC)nnn1[C@@H]1O[C@H](CO)[C@H]2OC3(CCCCC3)O[C@H]21 | 2.88 | 8.62 | 1.98 | 4.06 | 2.97 | 8.79 | 1.96 µM | 4.09 µM | 7.27 | 29.8 | 2.04 | 4.48 | 3.81 | 13.2 | 1.8 | 3.46 | 2.93 | 7.52 | 1.67 | 3.28
OC(COc1ccccc1)CN1CCCCC1 (stereo not given) |  | > 100 |  | > 100 |  | > 100 |  | > 100 µM |  | > 100 |  | > 100 |  | > 100 |  | > 100 |  | > 100 |  | > 100
COc1cc(CN(c2ccc(C)cc2)C2OC(=O)c3ccccc32)cc(OC)c1OC (stereo not given) | 0.691 | > 100 | 0.351 | 1.3 | 0.846 | > 100 | 0.47 µM | 4.24 µM | 0.389 | > 100 | 2.93 | > 100 |  |  | 0.141 | 0.52 | 3.41 | > 100 | 2.7 | > 100
